In patent US20260108546A1 (ELI LILLY AND COMPANY, priority 2024, published 2026) one finds Emax and EC50 data, which are given here for 13 compounds.

The test concerns the target T1, hGIP-R (Homo sapiens, UniProt P48546).
T1 construct: expressed in transfected cells; host or cells: HEK-293 clonal cell lines
T1 sequence (P48546 22-466): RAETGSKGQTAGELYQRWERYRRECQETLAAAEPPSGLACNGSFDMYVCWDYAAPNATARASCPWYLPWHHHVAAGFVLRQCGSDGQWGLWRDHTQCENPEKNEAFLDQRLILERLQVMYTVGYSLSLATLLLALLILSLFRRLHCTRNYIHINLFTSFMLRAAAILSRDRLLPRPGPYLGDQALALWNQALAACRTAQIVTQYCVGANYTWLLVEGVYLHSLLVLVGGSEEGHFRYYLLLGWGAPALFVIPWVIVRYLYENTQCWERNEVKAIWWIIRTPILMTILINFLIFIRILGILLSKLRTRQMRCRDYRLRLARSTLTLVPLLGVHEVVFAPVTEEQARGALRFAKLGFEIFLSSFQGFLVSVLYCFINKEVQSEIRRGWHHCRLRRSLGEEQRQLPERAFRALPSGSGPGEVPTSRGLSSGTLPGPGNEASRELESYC
The test is described as follows: Functional hGIP-R Assay (cAMP formation, HTRF). It is filed as cell-based. Conditions: for Emax: cAMP efficacy, percent of maximal response to GIP(1-42)OH, 37° C., 0.1% bovine casein, arithmetic mean ± SEM; for EC50: cAMP potency, HEK-293 cells expressing hGIP-R, incubated at 37° C. in the presence of 0.1% bovine casein, geometric mean, read-out: Human GIP-R EC50, nM (SEM, n). The gist of the method: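 Relative EC50 and Emax came from four-parameter logistic fits of cAMP as a percent of the human GIP (1-42) OH maximal response. The cAMP was measured by competitive HTRF after 30 min, 37 °C compound exposure of hGIP-R HEK-293 clones in IBMX (250 μM)-containing medium.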
On the technique in general: cAMP levels reflect the balance of adenylyl cyclase and phosphodiesterase activity.

With `Cc1cn2cc(-c3ccc([C@H]4C[C@@]45CCN([C@H](Cc4cnn(C(F)F)c4)C(=O)NC(C)(C)Cn4nc(C(F)(F)F)cc4-c4cc(F)c(=O)n(C)c4)C5=O)c(F)c3)cnc2n1` [Example 100, (2R)-3-(1-(Difluoromethyl)-1H-pyrazol-4-yl)-N-(1-(5-(5-fluoro-1-methyl-6-oxo-1,6-dihydropyridin-3-yl)-3-(trifluoromethyl)-1H-pyrazol-1-yl)-2-methylpropan-2-yl)-2-((1S,3R)-1-(2-fluoro-4-(2-methylimidazo[1,2-a]pyrimidin-6-yl)phenyl)-4-oxo-5-azaspiro[2.4]heptan-5-yl)propanamide], the Emax (as a rule, the greatest response seen or fitted, relative to the assay's reference) is 70.9 ± 1.67% and the EC50 – broadly, the concentration giving half of the maximal effect – was 3.47 nM.
For `Cn1cc2cc(-c3ccc([C@H]4C[C@@]45CCN([C@H](Cc4cnn(C(F)F)c4)C(=O)NC(C)(C)Cn4nc(C(F)(F)F)cc4-c4ccc(=O)n(C)c4)C5=O)c(F)c3)cnc2n1` [Example 117, (2R)-3-(1-(Difluoromethyl)-1H-pyrazol-4-yl)-2-((1S,3R)-1-(2-fluoro-4-(2-methyl-2H-pyrazolo[3,4-b]pyridin-5-yl)phenyl)-4-oxo-5-azaspiro[2.4]heptan-5-yl)-N-(2-methyl-1-(5-(1-methyl-6-oxo-1,6-dihydropyridin-3-yl)-3-(trifluoromethyl)-1H-pyrazol-1-yl)propan-2-yl)propanamide] the same measures were 56 ± 3.91% and 4.39 nM.
Turning to `[2H]C([2H])([2H])n1cc(-c2cc(C(F)(F)F)nn2CC(C)(C)NC(=O)[C@@H](Cc2cnn(C(F)F)c2)N2CC[C@@]3(C[C@@H]3c3ccc(-c4cnc5nn(C)cc5c4)cc3)C2=O)ccc1=O` [Example 120, (R)-3-(1-(Difluoromethyl)-1H-pyrazol-4-yl)-N-(2-methyl-1-(5-(1-(methyl-d3)-6-oxo-1,6-dihydropyridin-3-yl)-3-(trifluoromethyl)-1H-pyrazol-1-yl)propan-2-yl)-2-((1R,3R)-1-(4-(2-methyl-2H-pyrazolo[3,4-b]pyridin-5-yl)phenyl)-4-oxo-5-azaspiro[2.4]heptan-5-yl)propanamide], the Emax came to 72.4 ± 2.16% and the concentration for a half-maximal effect (EC50) worked out at 33.5 nM.
For `Cn1cc2cc(-c3ccc([C@H]4C[C@@]45CCN([C@H](Cc4cnn(C(F)F)c4)C(=O)NC(C)(C)Cn4nc(C(F)(F)F)cc4-c4ccc(OC(F)F)nn4)C5=O)cc3)cnc2n1` [Example 121, (R)-N-(1-(5-(6-(Difluoromethoxy)pyridazin-3-yl)-3-(trifluoromethyl)-1H-pyrazol-1-yl)-2-methylpropan-2-yl)-3-(1-(difluoromethyl)-1H-pyrazol-4-yl)-2-((1R,3R)-1-(4-(2-methyl-2H-pyrazolo[3,4-b]pyridin-5-yl)phenyl)-4-oxo-5-azaspiro[2.4]heptan-5-yl)propanamide] the same measures were 74.6 ± 1.47% and 107 nM.
As for `Cc1nc(C2CC2)nc(O)c1-c1cc(C(F)(F)F)nn1CC(C)(C)NC(=O)[C@@H](Cc1cnn(C(F)F)c1)N1CC[C@@]2(C[C@@H]2c2ccc(-c3cnc4nn(C)cc4c3)cc2)C1=O` [Example 122, (R)-N-(1-(5-(2-Cyclopropyl-4-hydroxy-6-methylpyrimidin-5-yl)-3-(trifluoromethyl)-1H-pyrazol-1-yl)-2-methylpropan-2-yl)-3-(1-(difluoromethyl)-1H-pyrazol-4-yl)-2-((1R,3R)-1-(4-(2-methyl-2H-pyrazolo[3,4-b]pyridin-5-yl)phenyl)-4-oxo-5-azaspiro[2.4]heptan-5-yl)propanamide], the maximum response (Emax) came out at 90.8 ± 7.25% and the EC50 was found to be 103 nM.
For `Cn1cc2cc(-c3ccc([C@H]4C[C@@]45CCN([C@H](Cc4cnn(C(F)F)c4)C(=O)NC(C)(C)Cn4nc(C(F)(F)F)cc4-c4cccn(CC#N)c4=O)C5=O)cc3)cnc2n1` [Example 123, (R)-N-(1-(5-(1-(Cyanomethyl)-2-oxo-1,2-dihydropyridin-3-yl)-3-(trifluoromethyl)-1H-pyrazol-1-yl)-2-methylpropan-2-yl)-3-(1-(difluoromethyl)-1H-pyrazol-4-yl)-2-((1R,3R)-1-(4-(2-methyl-2H-pyrazolo[3,4-b]pyridin-5-yl)phenyl)-4-oxo-5-azaspiro[2.4]heptan-5-yl)propanamide] the same measures were 95.7 ± 6.9% and 18.7 nM.
For `Cn1cc2cc(-c3ccc([C@H]4C[C@@]45CCN([C@H](Cc4cnn(C(F)F)c4)C(=O)NC(C)(C)Cn4nc(C(F)(F)F)cc4-c4cc(F)c(CO)cc4F)C5=O)cc3)cnc2n1` [Example 124, (R)-N-(1-(5-(2,5-Difluoro-4-(hydroxymethyl)phenyl)-3-(trifluoromethyl)-1H-pyrazol-1-yl)-2-methylpropan-2-yl)-3-(1-(difluoromethyl)-1H-pyrazol-4-yl)-2-((1R,3R)-1-(4-(2-methyl-2H-pyrazolo[3,4-b]pyridin-5-yl)phenyl)-4-oxo-5-azaspiro[2.4]heptan-5-yl)propanamide] the same measures were 56.9 ± 11.2% and 55.6 nM.
Taken in the same sequence, the figures for `Cn1cc2cc(-c3ccc([C@H]4C[C@@]45CCN([C@H](Cc4cnn(C(F)F)c4)C(=O)NC(C)(C)Cn4nc(C(F)(F)F)cc4-c4ccc(=O)n(CC(F)(F)F)c4)C5=O)cc3)cnc2n1` [Example 125, (R)-3-(1-(Difluoromethyl)-1H-pyrazol-4-yl)-N-(2-methyl-1-(5-(6-oxo-1-(2,2,2-trifluoroethyl)-1,6-dihydropyridin-3-yl)-3-(trifluoromethyl)-1H-pyrazol-1-yl)propan-2-yl)-2-((1R,3R)-1-(4-(2-methyl-2H-pyrazolo[3,4-b]pyridin-5-yl)phenyl)-4-oxo-5-azaspiro[2.4]heptan-5-yl)propanamide] were 68.5 ± 6.59% and 38.5 nM.
For `Cn1cc2cc(-c3ccc([C@H]4C[C@@]45CCN([C@H](Cc4cnn(C(F)F)c4)C(=O)NC(C)(C)Cn4nc(C(F)(F)F)cc4-c4cccn(CC(N)=O)c4=O)C5=O)cc3)cnc2n1` [Example 126, (R)-N-(1-(5-(1-(2-Amino-2-oxoethyl)-2-oxo-1,2-dihydropyridin-3-yl)-3-(trifluoromethyl)-1H-pyrazol-1-yl)-2-methylpropan-2-yl)-3-(1-(difluoromethyl)-1H-pyrazol-4-yl)-2-((1R,3R)-1-(4-(2-methyl-2H-pyrazolo[3,4-b]pyridin-5-yl)phenyl)-4-oxo-5-azaspiro[2.4]heptan-5-yl)propanamide], the Emax came out at 93.6 ± 1.06% and the EC50 was determined as 42.3 nM.
For `CNC(=O)Cn1cc(-c2cc(C(F)(F)F)nn2CC(C)(C)NC(=O)[C@@H](Cc2cnn(C(F)F)c2)N2CC[C@@]3(C[C@@H]3c3ccc(-c4cnc5nn(C)cc5c4)cc3)C2=O)cn1` [Example 127, (R)-3-(1-(Difluoromethyl)-1H-pyrazol-4-yl)-N-(2-methyl-1-(1′-(2-(methylamino)-2-oxoethyl)-5-(trifluoromethyl)-1′H,2H-[3,4′-bipyrazol]-2-yl)propan-2-yl)-2-((1R,3R)-1-(4-(2-methyl-2H-pyrazolo[3,4-b]pyridin-5-yl)phenyl)-4-oxo-5-azaspiro[2.4]heptan-5-yl)propanamide] the same measures were 56.1 ± 4.15% and 60.1 nM.
For `Cc1c(-c2cc(C(F)(F)F)nn2CC(C)(C)NC(=O)[C@@H](Cc2cnn(C(F)F)c2)N2CC[C@@]3(C[C@@H]3c3ccc(-c4cnc5nn(C)cc5c4)cc3)C2=O)cn(C)c(=O)c1C#N` [Example 128, (R)-N-(1-(5-(5-Cyano-1,4-dimethyl-6-oxo-1,6-dihydropyridin-3-yl)-3-(trifluoromethyl)-1H-pyrazol-1-yl)-2-methylpropan-2-yl)-3-(1-(difluoromethyl)-1H-pyrazol-4-yl)-2-((1R,3R)-1-(4-(2-methyl-2H-pyrazolo[3,4-b]pyridin-5-yl)phenyl)-4-oxo-5-azaspiro[2.4]heptan-5-yl)propanamide] the same measures were 85.2 ± 1.24% and 163 nM.
Taken in the same sequence, the figures for `Cn1cc2cc(-c3ccc([C@H]4C[C@@]45CCN([C@H](Cc4cnn(C(F)F)c4)C(=O)NC(C)(C)Cn4nc(C(F)(F)F)cc4-c4cn(C)c(=O)c6ccccc46)C5=O)cc3)cnc2n1` [Example 129, (R)-3-(1-(Difluoromethyl)-1H-pyrazol-4-yl)-N-(2-methyl-1-(5-(2-methyl-1-oxo-1,2-dihydroisoquinolin-4-yl)-3-(trifluoromethyl)-1H-pyrazol-1-yl)propan-2-yl)-2-((1R,3R)-1-(4-(2-methyl-2H-pyrazolo[3,4-b]pyridin-5-yl)phenyl)-4-oxo-5-azaspiro[2.4]heptan-5-yl)propanamide] were 78.6 ± 6.28% and 138 nM.
In the case of `Cn1cc2cc(-c3ccc([C@H]4C[C@@]45CCN([C@H](Cc4cnn(C(F)F)c4)C(=O)NC(C)(C)Cn4nc(C(F)(F)F)cc4-c4cc(C(F)(F)F)c(=O)n(C)c4)C5=O)cc3)cnc2n1` [Example 130, (R)-3-(1-(Difluoromethyl)-1H-pyrazol-4-yl)-N-(2-methyl-1-(5-(1-methyl-6-oxo-5-(trifluoromethyl)-1,6-dihydropyridin-3-yl)-3-(trifluoromethyl)-1H-pyrazol-1-yl)propan-2-yl)-2-((1R,3R)-1-(4-(2-methyl-2H-pyrazolo[3,4-b]pyridin-5-yl)phenyl)-4-oxo-5-azaspiro[2.4]heptan-5-yl)propanamide], the Emax came out at 74.9 ± 11.6% and the EC50 was found to be 104 nM.
